Test results published in patent publication US4432974A, “Antiinflammatory and/or analgesic 2,3-diaryl-5-silyl thiophenes” (E. I. Du Pont de Nemours and Company, priority 1982, dated 1984).
Where two headings read alike, the source gives them in different places.

Experiments:
[1] = system: phenylquinone-induced writhing in mice; assay: Phenylquinone Writhing Test; type: in vivo, female white mice; details: Mus musculus, read-out: Phenylquinone Writhing ED50
Method: A standard procedure for detecting and comparing the analgesic activity of compounds in this series for which there is a good correlation with human efficacy is the standard phenylquinone writhing test modified from Siegmund, et al., Proc. Soc. Exp. Biol. Med., 95, 729 (1957). A test compound suspended in 1% methylcellulose was given orally to fasted (17-21 hours) female white mice, 5-20 animals per double blind test. Aqueous (0.01% phenyl-p-benzoquinone) phenylquinone, 0.20 ml per mouse, was injected intraperitoneally 6 minutes before observations were begun. […] The effective analgesic dose for 50% of the mice (ED50) was calculated by the moving average method of Thompson, W. R., Bact. Rev., 11, 115-145 (1947); the time of peak activity was determined for many of the compounds. Data for some of the compounds is summarized in Tables II and III together with data for some standard analgetic antiinflammatory drugs.

[2] = system: adjuvant-induced arthritis in rats; assay: Established Adjuvant-Induced Arthritis in Rats; type: in vivo, Charles River Lewis male rats; details: for ED50: 168 h, read-out: Adjuvant Arthritis ED50 % Decrease From Control Paw Volume
[3] = daily oral dose 45 mg/kg, 7 days, rat, footnote 1 p < .001, footnote 2 p < .05 vs control
[4] = Table III, oral daily, 7 days, rat, from dose-response regression lines
[5] = Table III, oral, fasted female white mice

SMILES | ED50 ([1]; po) | ED50 ([2]; Rattus norvegicus, po) | other results
CC(=O)Oc1ccccc1C(=O)O [Aspirin, reference compound] | 135 mg/kg | – | –
COc1ccc(-c2cc([Si](C)(C)C)sc2-c2ccc(OC)cc2)cc1 [Example 1, 2,3-Bis(4-methoxyphenyl)-5-(trimethylsilyl)thiophene] | 0.19 mg/kg | 8 mg/kg | –
COc1ccc(-c2cc([SiH](C)C)sc2-c2ccc(OC)cc2)cc1 [Example 2, 2,3-Bis(4-methoxyphenyl)-5-(dimethylsilyl)thiophene] | 2.1 mg/kg | 14.5 mg/kg | –
C[Si](C)(C)c1cc(-c2ccc(F)cc2)c(-c2ccc(F)cc2)s1 [Example 3] | 4.5 mg/kg | – | Adjuvant Arthritis Percent Decrease From Control Paw Volume ([2]; daily oral dose 27 mg/kg, 7 days, rat, p < .001 vs control (Student's t)): 37%
C[Si](C)(C)c1cc(-c2ccccc2)c(-c2ccccc2)s1 [Example 4] | 15 mg/kg | 45 mg/kg | –
Cc1ccc(-c2cc([Si](C)(C)C)sc2-c2ccc(C)cc2)cc1 [Example 5] | 135 mg/kg | – | Adjuvant Arthritis Percent Decrease From Control Paw Volume [2, 3]: 44%
CSc1ccc(-c2sc([Si](C)(C)C)cc2-c2ccc(F)cc2)cc1 [Example 6] | – | – | Adjuvant Arthritis Percent Decrease From Control Paw Volume ([2]; daily oral dose 81 mg/kg, 7 days, rat, p < .001 vs control (Student's t)): 42%
C=C[Si](C)(C)c1cc(-c2ccc(OC)cc2)c(-c2ccc(OC)cc2)s1 [Example 7, 2,3-bis(4-methoxyphenyl)-5-(ethenyldimethylsilyl)thiophene] | 0.23 mg/kg | 6.8 mg/kg | –
C=CC[Si](C)(C)c1cc(-c2ccc(OC)cc2)c(-c2ccc(OC)cc2)s1 [Example 8, 2,3-bis(4-methoxyphenyl)-5-[(2-propenyl)dimethylsilyl]thiophene] | 0.76 mg/kg | 9.4 mg/kg | –
COc1ccc(-c2cc([Si](C)(C)CCC(F)(F)F)sc2-c2ccc(OC)cc2)cc1 [Example 9] | – | 30 mg/kg | –
CC[Si](CC)(CC)c1cc(-c2ccc(OC)cc2)c(-c2ccc(OC)cc2)s1 [Example 10] | 5.2 mg/kg | 25 mg/kg | –
COc1ccc(-c2cc([Si](C)(C)C(C)(C)C)sc2-c2ccc(OC)cc2)cc1 [Example 11] | > 108 mg/kg | 40 mg/kg | –
COc1ccc(-c2cc([Si](C)(C)c3ccccc3)sc2-c2ccc(OC)cc2)cc1 [Example 12] | < 108 mg/kg | 55 mg/kg | –
COc1ccc(-c2cc([Si](C)(C)Cc3ccccc3)sc2-c2ccc(OC)cc2)cc1 [Example 13] | – | – | Adjuvant Arthritis Percent Decrease From Control Paw Volume [2, 3]: 24%
COc1ccc(-c2cc([Si](C)(C)OC)sc2-c2ccc(OC)cc2)cc1 [Example 21, 2,3-Bis(4-methoxyphenyl)-5-(methoxydimethylsilyl)thiophene] | 3.8 mg/kg | 9.8 mg/kg | –
CC(C)Cc1ccc(C(C)C(=O)O)cc1 (centres unmarked) [Ibuprofen, reference compound] | – | – | ED50 [2, 4]: 100 mg/kg; ED50 [1, 5]: 10 mg/kg
COc1ccc2c(c1)c(CC(=O)O)c(C)n2C(=O)c1ccc(Cl)cc1 [Indomethacin, reference compound] | 0.35 mg/kg | 0.3 mg/kg | –
CCCCC1C(=O)N(c2ccccc2)N(c2ccccc2)C1=O [Phenylbutazone, reference compound] | – | – | ED50 [2, 4]: 10 mg/kg; ED50 [1, 5]: 80 mg/kg
